pEC50: −log10 of the molar value. Where two headings read alike, the source gives them in different places. Some results are limits rather than exact numbers.

What is called pEC50 is the EC50 on a negative log10 scale, so that one unit is a factor of ten.

What all share (type): cell-based, human
One experiment deals with Raji. Put plainly: ATP luminescence proliferation assay, Raji. The following applies: ATP luminescence, 72 h incubation, read-out: EC50 Raji (72 h). On the procedure:
(§1) This example generally describes the procedures used to assay the antiproliferative activity of compounds of this invention or their conjugates. Human tumor cell lines were obtained from the American Type Culture Collection (ATCC), P.O. Box 1549, Manassas, Va. 20108, USA, and cultured according to instruction from the ATCC. Cells were seeded at 1.0×10^3 or 1.0×10^4 cells/well in 96-well plates for 3 h for ATP assays or ^3H thymidine assays, respectively. 1:3 serial dilutions of free (unconjugated) compounds or their conjugates were added to the wells. Plates were allowed to incubate for 24 to 72 h. The ^3H thymidine plates were pulsed with 1.0 μCi of ^3H-thymidine per well for the last 24 hours of the total incubation period, harvested, and read on a Top Count Scintillation Counter (Packard Instruments, Meriden, Conn.). ATP levels in the ATP plates were measured using the […]-GLO® Luminescent Cell Viability kit following the manufacturer's manual and read on a GLOMAX® 20/20 luminometer (both from Promega, Madison, Wis., USA). The EC50 values—the concentration at which an agent inhibits or reduces cell proliferation by 50% —were determined using PRISM™ software, version 4.0 (GraphPad Software, La Jolla, Calif., USA).
(§2) Using the ^3H thymidine or the ATP luminescence assay, or both, the activities of compounds of this invention were assayed against the following cancer cell lines: HCT-15 (colorectal cancer, multi-drug resistant (MDR)); Hep3B (liver cancer); LNCaP (prostate cancer, androgen receptor positive (AR^+)); MDA-MB-231 (breast cancer, estrogen receptor, progesterone receptor, and Her2 negative (triple negative)); A2058 (melanoma); U-87 MG (glioblastoma); NCI-H460 (NSCLC); A549 (NSCLC); HPAC (pancreatic cancer, primary); PC3 (prostate cancer, AR); BT474 (breast cancer, Her2 highly positive (Her2hi)); SKOV3 (ovarian cancer, Her2hi); 786-O (renal cancer); UO-31 (renal cancer, MDR); NCI-H740 (SCLC); DMS53 (SCLC); SK-BR3 (breast cancer, Her2hi); ZR-75 (breast cancer, estrogen receptor positive); OVCAR3 (ovarian cancer); HL-60 (APL); OVCAR8/Adr (ovarian cancer, MDR); CEM-Cl (ALL); Nomo-1 (AML); RPMI-8226 (MM)); Raji (lymphoma); SW-480 (colorectal cancer, metastatic); SW-620 (colorectal cancer); and H226 (lung cancer). (Not all compounds were assayed against all cell lines.)
(§3) Table 3 provides the data for the ATP luminescence proliferation assays, with an incubation period of 48, 72, or 96 h, as noted.

A further experiment deals with SW-480. The experiment can be described thus: ATP luminescence proliferation assay, SW-480. The settings on record: ATP luminescence, SW480, 96 h incubation, read-out: EC50 SW480 (96 h). The procedure: as §1, §2, §3
In another experiment the test system is CEM-C1. The experiment can be described thus: 3H thymidine proliferation assay, CEM-C1. The settings on record: 3H thymidine method, 72 h incubation, read-out: EC50, CEM-C1. On the procedure:
as §1, §2
(§4) Table 2 provides the data for proliferation assays using the ^3H thymidine method, with an incubation period of 72 h.

The next experiment concerns NCI-H460. Put plainly: 3H thymidine proliferation assay, NCI-H460. The settings on record: 3H thymidine method, 72 h incubation, read-out: EC50, NCI-H460. On the procedure:
as §1, §2, §4

The subject of another experiment is MDA-MB-231. Put plainly: 3H thymidine proliferation assay, MDA-MB-231. The following applies: 3H thymidine method, 72 h incubation, read-out: EC50, MDA-MB-231. On the procedure: as §1, §2, §4
The subject of a further experiment is SKOV3. Put plainly: ATP luminescence proliferation assay, SKOV3. The settings on record: ATP luminescence. On the procedure:
as §1, §2, §3

A further experiment relates to Hep3B. Put plainly: ATP luminescence proliferation assay, Hep3B. The following applies: ATP luminescence, 48 h incubation, read-out: EC50 Hep3B (48 h). On the procedure: as §1, §2, §3
The next experiment deals with OVCAR8. The experiment can be described thus: 3H thymidine proliferation assay, OVCAR8. The settings on record: 3H thymidine method, 72 h incubation, read-out: EC50, OVCAR8. The procedure: as §1, §2, §4
A further experiment deals with HL-60. The experiment can be described thus: ATP luminescence proliferation assay, HL-60. The settings on record: ATP luminescence, HL-60, 72 h incubation, read-out: EC50 HL-60 (72 h). An outline of the steps: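 Read-out: luminescent ATP cell viability after 48, 72 or 96 h incubation, as noted, with 1:3 serial dilutions of unconjugated compounds or their conjugates. Plating was 1.0×10^3 cells/well, 3 h before dosing. EC50 = concentration giving 50% inhibition of proliferation.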

Experiment [1] relates to PC3. The experiment can be described thus: ATP luminescence proliferation assay, PC3. The following applies: ATP luminescence, PC3, 48 h incubation, read-out: EC50 PC3 (48 h). The procedure:
as §1, §2, §3

For a further experiment, the system named is Nomo-1. The experiment can be described thus: 3H thymidine proliferation assay, Nomo-1. The settings on record: 3H thymidine method, 72 h incubation, read-out: EC50, Nomo-1. On the procedure:
as §1, §2, §4

Another experiment relates to RPMI-8226. Put plainly: 3H thymidine proliferation assay, RPMI-8226. The settings on record: 3H thymidine method, 72 h incubation, read-out: EC50, RPMI-8226. The procedure: as §1, §2, §4
The test system of the next experiment is SK-BR3. The experiment can be described thus: ATP luminescence proliferation assay, SK-BR3. The settings on record: ATP luminescence. The procedure:
as §1, §2, §3

A further experiment deals with HPAC. Put plainly: ATP luminescence proliferation assay, HPAC. The settings on record: ATP luminescence, 72 h incubation, read-out: EC50 HPAC (72 h). On the procedure: as §1, §2, §3
Experiment [2] concerns PC3. The experiment can be described thus: 3H thymidine proliferation assay, PC3. The following applies: 3H thymidine method, 72 h incubation, read-out: EC50, PC3. The procedure:
as §1, §2, §4

The test system of another experiment is CEM-Cl. Put plainly: ATP luminescence proliferation assay, CEM-C1. The following applies: ATP luminescence, CEM-C1, 72 h incubation, read-out: EC50 CEM-C1 (72 h). On the procedure: as §1, §2, §3
The subject of another experiment is BT474. Put plainly: 3H thymidine proliferation assay, BT474. The settings on record: 3H thymidine method, 72 h incubation, read-out: EC50, BT474. On the procedure:
as §1, §2, §4

Another experiment concerns A2058. Put plainly: 3H thymidine proliferation assay, A2058. The settings on record: 3H thymidine method, 72 h incubation. On the procedure:
as §1, §2, §4

Setting [3] is: Homo sapiens, SK-OV-3, SKOV3, 48 h incubation, read-out: EC50 SKOV3 (48 h).
[4] abbreviates: Homo sapiens, SK-BR-3, SK-BR3, 72 h incubation, read-out: EC50 SK-BR3 (72 h).
The mark [5] stands for this setting: SKOV3, 72 h incubation, read-out: EC50 SKOV3 (72 h).
Where [6] appears, read: SK-BR3, 48 h incubation, read-out: EC50 SK-BR3 (48 h).

Regarding `COc1cccc2c1C(=O)c1c(O)c3c(c(O)c1C2=O)C[C@@](O)(C(=O)CO)C[C@@H]3O[C@H]1C[C@H](N)[C@H](O)[C@H](C)O1` [Dox, doxorubicin, reference compound], the negative logarithm of the EC50 (pEC50) in the experiment with Raji (Homo sapiens) was 6.52; in the experiment on SW-480 (Homo sapiens), 6.67; with CEM-C1 (Homo sapiens, CEM/C1), 6.84; in the experiment with NCI-H460 (Homo sapiens, NCI-H460), 7.00; in the experiment on MDA-MB-231 (Homo sapiens, MDA-MB-231) it was 6.88; in the experiment on SKOV3 (setting [3]), 6.17. Further, the pEC50 with Hep3B (Homo sapiens) was 6.35; in the experiment on OVCAR8 (Homo sapiens, OVCAR-8), 5.69; in the experiment on HL-60 (Homo sapiens) it was 6.83; with PC3 [1] (Homo sapiens, PC-3) it was 5.97; with Nomo-1 (Homo sapiens, NOMO-1), 6.98; in the experiment on RPMI-8226 (Homo sapiens, RPMI-8226), 7.17. Further, the pEC50 in the experiment on SK-BR3 (setting [4]) was 6.36; in the experiment with HPAC (Homo sapiens), 6.67; in the experiment with PC3 [2] (Homo sapiens, PC-3), 6.56; in the experiment with CEM-Cl (Homo sapiens), 6.79; with BT474 (Homo sapiens, BT-474) it was 6.37.
On to `CC[C@H](C)[C@H](NC(=O)[C@H]1CCCCN1C)C(=O)N(C)[C@H](C[C@@H](OC)c1nc(C(=O)N[C@@H](Cc2ccc(N)cc2)CC(C)C(=O)O)cs1)C(C)C` (some centres unmarked) [Compound 51], for which the pEC50 in the experiment with Raji was 8.30; with SW-480 it was 7.89; in the experiment with CEM-C1, 8.70; with NCI-H460 it was 8.14; with MDA-MB-231, 8.06; in the experiment on SKOV3 (setting [5]) it was 8.00. The pEC50 is 8.42 in the experiment on Hep3B; 9.40 in the experiment with A2058; 7.70 in the experiment on OVCAR8; 7.80 in the experiment with PC3 [1]; 8.46 in the experiment with Nomo-1; 8.66 with RPMI-8226. Moreover, the pEC50 was 7.89 in the experiment with SK-BR3 (setting [6]); 8.35 in the experiment with HPAC; 8.25 with PC3 [2]; 8.32 in the experiment with CEM-Cl; 7.52 in the experiment on BT474.
With `CCC[C@H](NC(=O)[C@H](Cc1ccccc1)NC(=O)c1csc([C@@H](C[C@H](C(C)C)N(C)C(=O)[C@@H](NC(=O)[C@H]2CCCCN2C)[C@@H](C)CC)OC)n1)C(=O)OC` [Compound 19], the pEC50 is 8.04 in the experiment with Raji; 7.28 in the experiment with SW-480; 7.66 in the experiment with CEM-C1; less than 7.00 with NCI-H460; 7.82 with SKOV3 (setting [5]); 7.74 with Hep3B. Also, the pEC50 with A2058 was 9.89; in the experiment on OVCAR8, 7.16; in the experiment with HL-60 it was 8.11; in the experiment with PC3 [1], roughly 7.48; in the experiment with Nomo-1, 8.89; in the experiment with RPMI-8226, 7.64. The pEC50 is 8.41 in the experiment on SK-BR3 (setting [6]); 9.48 in the experiment on HPAC; less than 7.00 with PC3 [2]; 7.96 in the experiment on CEM-Cl; less than 7.00 in the experiment with BT474.
With `Nc1ccc(C(=O)Nc2ccc3[nH]c(C(=O)N4C[C@@H](CCl)c5c4cc(O)c4ccccc54)cc3c2)cc1` [CBI, reference compound], the pEC50 with Raji (Homo sapiens) is 8.68; in the experiment with SW-480 (Homo sapiens), 9.04; with CEM-C1 (Homo sapiens, CEM/C1), 9.96; with NCI-H460 (Homo sapiens, NCI-H460), 10.38; with MDA-MB-231 (Homo sapiens, MDA-MB-231), 10.72; in the experiment on SKOV3 (setting [3]), 8.52. Further, the pEC50 in the experiment with Hep3B (Homo sapiens) was 8.59; with OVCAR8 (Homo sapiens, OVCAR-8) it was 9.80; with HL-60 (Homo sapiens), 9.12; with PC3 [1] (Homo sapiens, PC-3), 7.92; in the experiment with Nomo-1 (Homo sapiens, NOMO-1), 10.80; in the experiment with RPMI-8226 (Homo sapiens, RPMI-8226), 9.92. The negative logarithm of the EC50 (pEC50) is 8.51 with SK-BR3 (setting [4]); 8.22 in the experiment on HPAC (Homo sapiens); 10.31 in the experiment with PC3 [2] (Homo sapiens, PC-3); 9.26 in the experiment with CEM-Cl (Homo sapiens); 8.92 in the experiment on BT474 (Homo sapiens, BT-474).

These data come from patent US20130204033A1, “ANTIPROLIFERATIVE COMPOUNDS, CONJUGATES THEREOF, METHODS THEREFOR, AND USES THEREOF” (Medarex, Inc., priority 2009, published 2013).
